This is an account of results in patent publication US11931327B2, “Drug for retinal degenerative disease associated with photoreceptor degeneration” (Daiichi Sankyo Company, Limited, priority 2017, dated 2024).

The test system of data set [1] is transgenic zebrafish Tg (rho: NTR-NanoLuc, my17: DsRed2). Description: animal or person. The conditions noted are these: for rod-cell regeneration induction activity compared to the DMSO control: Examples 3 and 4, TTNPB 0.3, 1, 3, 10 and 30 μM, N=4, RA and BMS493 N=8, Dunnett's test; for EC50: Danio rerio, 48 h, read-out: EC50 of rod-cell regeneration induction (Activation (% of control) 50%); for rod-cell regeneration induction activity: Example 6, various RAR agonists. The source says:
First, the present inventors constructed a model for evaluating induction of rod cell regeneration. […] Transgenic zebrafish Tg (rho: NTR-NanoLuc, my17: DsRed2), in which a fluorescent protein, DsRed2, which is cardiac-tissue specifically expressed by cardiomyocyte-specific my17 promoter, can be simply detected by using dsRed2 as a marker under a fluorescence stereomicroscope. In the transgenic zebrafish, in addition to cardiac tissue specific expression of DsRed2, a reductase, i.e., nitroreductase (NTR), and a photoprotein, i.e., NanoLuc fusion protein (NTR-NanoLuc), are expressed by a rod-cell specific rho promoter, in a rod-cell specific manner. […] However, if, a prodrug, metronidazole, is added, non-toxic metronidazole is converted to a toxic radical by NTR. […] After rod cells are ablated by treatment with metronidazole, the transgenic zebrafish were washed with rearing water to remove the toxic radical. […] In the transgenic zebrafish, rod cells can be quantitatively determined by measuring the amount of luminescence derived from rod-cell-specific NanoLuc expression. After the rod cells are ablated, the transgenic zebrafish are exposed to a test compound. The activity of the test compound to induce rod-cell regeneration can be quantitatively evaluated by measuring the amount of luminescence derived from NanoLuc and specific to rod cells.
1) On the day before collection of eggs, a pair of male and female zebrafish, i.e., a transgenic fish Tg (rho: NTR-NanoLuc, my17: DsRed2) and a wild type, were placed in a tank for mating and isolated by a divider.
2) The next morning (8:00-11:00), the divider was removed to allow them to mate with each other. Fertilized eggs were collected. In the evening (16:00-18:00) of the same day, only normally developed fertilized eggs were screened and raised in a plate for growth.
3) Day 3 after fertilization, juvenile fish were transferred to rearing water, which contained 10 mM metronidazole (Sigma-Aldrich, Japan) and 1% DMSO (Wako Pure Chemical Industries Ltd.), (prepared by dissolving 60 mg of instant ocean (Napco Limited (Japan)) in 1 L of distilled water), and raised in dark conditions for 24 hours. In this manner, ablation was specifically applied to the rod cells of the juvenile fish. In contrast, non-ablated juvenile fish, which were to be used as a control, were transferred to a tank containing rearing water, which contained a 1% DMSO solution, and raised.
5) Ablated juvenile fish of 4 days after fertilization were washed well with Egg water and dispensed in wells of the assay plate containing a compound together with 100 μL of Egg water, such that 2 juvenile fish individuals were present per well.
6) After the juvenile fish were raised for 2 days, […] of Egg water was removed and ethyl 3-aminobenzoate methanesulfonate (Sigma-Aldrich Japan; 0.4 mg/mL, 10 μL) was added to euthanize the fish.
7) Nano-Glo (registered trademark) Luciferase assay Substrate (Promega Corporation) was added to Nano-Glo (registered trademark) Luciferase assay buffer (Promega Corporation) in a ratio of 1:50 and 100 μL of the resultant solution was added to each of the wells.
8) Shaking was carried out by use of BIO-Mixer (Biotech Japan Co., Ltd.) for one hour and luminescence of NanoLuc (registered trademark) was measured by use of EnVision (PerkinElmer Co., Ltd., Japan).
Individual concentration groups were compared to the DMSO control group by the Dunnett's test.

For another data set, the target named is T1, Human RARγ (Homo sapiens, UniProt P13631).
T1 sequence (P13631 1-454): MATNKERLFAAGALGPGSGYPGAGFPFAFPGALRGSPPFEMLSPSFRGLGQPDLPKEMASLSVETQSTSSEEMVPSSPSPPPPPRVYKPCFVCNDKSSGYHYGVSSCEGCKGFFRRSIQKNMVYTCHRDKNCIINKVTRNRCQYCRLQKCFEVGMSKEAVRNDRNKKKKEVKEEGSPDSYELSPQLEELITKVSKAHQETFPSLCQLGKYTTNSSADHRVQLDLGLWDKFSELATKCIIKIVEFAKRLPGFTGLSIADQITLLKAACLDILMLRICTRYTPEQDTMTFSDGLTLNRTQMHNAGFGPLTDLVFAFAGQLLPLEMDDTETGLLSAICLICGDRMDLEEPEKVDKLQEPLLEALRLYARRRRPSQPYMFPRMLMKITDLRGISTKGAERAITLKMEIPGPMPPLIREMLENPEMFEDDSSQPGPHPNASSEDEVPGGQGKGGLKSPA
Briefly: RAR agonistic activity, luciferase reporter (3xDR5: luc) in HEK293A cells. The following applies: concentration exhibiting luminescence of 500% of Negative control; 24 hours exposure; N=4. For orientation: In a reporter assay the amount or activity of a reporter protein is the signal.

The target of the next data set is T2, Human RARβ (Homo sapiens, UniProt P10826).
T2 sequence (P10826 1-448 isoform P10826-2): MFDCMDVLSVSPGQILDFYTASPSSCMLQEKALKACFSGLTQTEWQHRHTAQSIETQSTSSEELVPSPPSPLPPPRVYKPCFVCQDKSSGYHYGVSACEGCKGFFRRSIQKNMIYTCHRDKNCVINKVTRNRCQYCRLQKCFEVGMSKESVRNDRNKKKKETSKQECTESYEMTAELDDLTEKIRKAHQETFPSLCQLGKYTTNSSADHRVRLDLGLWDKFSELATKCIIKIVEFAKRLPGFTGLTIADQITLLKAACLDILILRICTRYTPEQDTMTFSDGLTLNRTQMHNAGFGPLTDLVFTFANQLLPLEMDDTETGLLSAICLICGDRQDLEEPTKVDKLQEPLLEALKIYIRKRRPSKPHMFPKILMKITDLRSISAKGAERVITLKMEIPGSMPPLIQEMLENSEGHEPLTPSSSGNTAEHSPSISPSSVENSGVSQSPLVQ
The description is as above. The following applies: concentration exhibiting luminescence of 1000% of Negative control; 24 hours exposure; N=4.

In data set [2] the test system is pathological zebrafish 2: Tg (rho: NTR-NanoLuc, my17: DsRed2) crossed with Tg (rho: hRHO (Q344X), omp: EGFP). Description: Rod-cell regeneration effect in retinitis pigmentosa model, quantitative evaluation by NanoLuc luminescence. The format is in vivo. The following applies: N=8 per concentration; Dunnett's test; FIG. 7. The method, then: Pathological model zebrafish, in which rod-cell regeneration can be quantitatively evaluated, were newly prepared using zebrafish known as a retinitis pigmentosa model. The effect of compounds was quantitatively verified in accordance with the following procedure.
1) Quantitative evaluation of rod-cell regeneration was carried out by zebrafish (pathological zebrafish 2) obtained by crossing transgenic Tg (rho: NTR-NanoLuc, my17: DsRed2) and Tg (rho: hRHO (Q344X), omp: EGFP).
Fertilized eggs were collected.
A screening test was repeated 8 times (N=8) at each concentration.
2) After shaking for one hour using BIO-Mixer, the luminescence from NanoLuc (registered trademark) was measured by use of EnVision.

Another data set concerns the target T3, Human RARα (Homo sapiens, UniProt P10276).
T3 sequence (P10276 1-462): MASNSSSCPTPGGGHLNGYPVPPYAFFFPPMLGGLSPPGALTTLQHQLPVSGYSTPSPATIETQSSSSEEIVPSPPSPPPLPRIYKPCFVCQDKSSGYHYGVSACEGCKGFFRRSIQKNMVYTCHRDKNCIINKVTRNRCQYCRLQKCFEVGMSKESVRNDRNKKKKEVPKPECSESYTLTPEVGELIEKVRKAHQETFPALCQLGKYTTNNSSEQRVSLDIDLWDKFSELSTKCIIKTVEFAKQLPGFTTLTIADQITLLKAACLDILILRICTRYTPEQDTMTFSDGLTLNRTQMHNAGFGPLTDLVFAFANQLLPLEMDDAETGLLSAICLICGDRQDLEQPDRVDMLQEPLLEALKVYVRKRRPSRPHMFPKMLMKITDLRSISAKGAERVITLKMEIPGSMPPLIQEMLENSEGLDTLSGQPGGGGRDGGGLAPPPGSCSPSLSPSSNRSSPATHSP
Briefly: RAR agonistic activity, luciferase reporter (3xDR5: luc) in HEK293A cells. The conditions noted are these: concentration exhibiting luminescence of 1000% of Negative control; 24 hours exposure; N=4.

The test system of data set [3] is transgenic zebrafish Tg (rho: NTR-NanoLuc, my17: DsRed2). Briefly: Validation: ablation of rod cells by metronidazole, luminescence derived from rod cells. It is filed as in vivo. The conditions noted are these: 10 mM for 24 hours, day 3 after fertilization. The method, then:
Thereafter, rod-cells are gradually regenerated in the zebrafish.
Day 3 after fertilization, the transgenic zebrafish were treated with 10 mM metronidazole (Sigma-Aldrich Japan) for 24 hours and euthanized by adding ethyl 3-aminobenzoate methanesulfonate (Sigma-Aldrich Japan). Luminescence derived from rod cells was measured in accordance with the manual attached to Nano-Glo (registered trademark) Luciferase Assay System (Promega Corporation). […] The resultant transgenic ablated fish were washed with rearing water, and a toxic radical derived from metronidazole was removed. Luminescence derived from the rod cells after 24 and 48 hours was measured. As a result, it was confirmed that rod cells are gradually regenerated over 48 hours (FIG. 3).

Experimental for Human RARα: (§1) RAR agonistic activity was measured in the following procedure.
(§2) 1) HEK293A cells (Invitrogen), which functionally co-express Human RARα, Human RARβ and Human RARγ, were prepared by adding Lipofectamine (registered trademark) 2000 Transfection Reagent (Thermo Fisher Scientific) to an RAR synthetic response element luciferase reporter construct (3xDR5: luc) in accordance with the method described in the manual attached to the kit.
(§3) 3) Twenty-four hours after exposure to a compound, luminescence from the cells was measured by using PICCA JEAN (registered trademark) luminescence kit (TOYO B-Net CO., LTD.) and EnVision (PerkinElmer Corporation, Japan) (N=4).
(§4) In evaluation of RAR agonistic activity, provided that the measurement value (Negative control) of luminescence from the cells with no addition of a compound was determined as 100%, the RAR agonistic activity (%) of a test substance was calculated in accordance with the following expression. The average value thereof was plotted versus the concentration of a test substance. RAR agonistic activity (%)=(measurement value of sample well÷average value of Negative control)×100
Experimental for Human RARβ: as §1, §2, §3, §4
Experimental for Human RARγ: as §1, §2, §3, §4

In the case of “4-[(1E)-2-[5,6-dihydro-5,5-dimethyl-8-(2-phenylethynyl)-2naphthalenyl]ethenyl]benzoate [BMS493]”, the “precipitation of compound in the assay” value in data set [1] (30 μM) is listed as “precipitated”. For the same compound, the toxicity to fish entry in data set [1] (100 μM, cardiac arrest) was “all fish died”. Besides, in data set [1], the “rod-cell regeneration induction activity compared to the DMSO control” value was “did not show rod-cell regeneration induction activity”.

As for `CC1(C)CCC(C)(C)c2cc(NC(=O)c3ccc(C(=O)O)cc3)ccc21` [Tamibarotene], in data set [1], the EC50 is 9.08 nM and the “rod-cell regeneration induction activity” value is listed as “strong rod-cell regeneration induction activity”. The “RARγ EC500” value at Human RARγ is on record as 248 nM. In addition, at Human RARβ, the “RARβ EC1000” value turned out to be 79 nM. The “regeneration of rod cells in the retinitis pigmentosa model (luminescence, words)” value in data set [2] is listed as “statistically significant regeneration of rod cells in a dose dependent manner”.

In the case of `CC1(C)CCSc2ccc(C#Cc3ccc(C(=O)O)cn3)cc21` [Tazarotenic acid], in data set [1], the EC50 was 786 nM. In addition, at Human RARγ, the “RARγ EC500” value came to 48 nM. In addition, on Human RARβ, the “RARβ EC1000” value was 4.4 nM. For the same compound, the “RARα EC1000” value at Human RARα is recorded as 12 nM.

Regarding `COC(=O)c1ccc(C(=O)Nc2ccc3c(c2)C(C)(C)CCC3(C)C)cc1` [Tamibarotene methyl ester], the EC50 in data set [1] stood at 85.4 nM. In addition, at Human RARγ, the “RARγ EC500” value amounted to 72.8 nM. Further, the “RARβ EC1000” value on Human RARβ was 29.1 nM. The “RARα EC1000” value on Human RARα worked out at 0.91 nM.

Turning to `CCOC(=O)c1ccc(C#Cc2ccc3c(c2)C(C)(C)CCS3)nc1` [Tazarotene], the EC50 in data set [1] was 402 nM.

As to `CC1(C)CCC(C)(C)c2cc(Cn3cccn3)c(/C=C/c3ccc(C(=O)O)cc3)cc21` [Palovarotene], the EC50 in data set [1] worked out at 1210 nM.

With `Cc1ncc([N+](=O)[O-])n1CCO` [metronidazole], the “number of rod cells remaining after ablation (luminescence)” value in data set [3] is 13.5%.

As for `CC1=C(/C=C/C(C)=C/C=C/C(C)=C/C(=O)O)C(C)(C)CCC1` [All-trans Retinoic acid], the “rod-cell regeneration induction activity compared to the DMSO control” value in data set [1] is recorded as “significant rod-cell regeneration induction activity in a concentration-dependent manner”.

On to `COc1ccc(-c2ccc3cc(C(=O)O)ccc3c2)cc1C12CC3CC(CC(C3)C1)C2` [Adapalene], for which the EC50 in data set [1] was above 1000 nM. The “Activation (% of control)” value in data set [1] (at 1000 nM (the maximum concentration evaluated), DMSO = 0%, 1 μM TTNPB = 100%) is listed as 39%. Moreover, the “RARγ EC500” value at Human RARγ was 54 nM. For the same compound, the “RARβ EC1000” value on Human RARβ came out at 6.9 nM. Further, the “RARα EC1000” value at Human RARα was 12 nM.

`CCOC(=O)c1ccc(C(=O)Nc2ccc3c(c2)C(C)(C)CCC3(C)C)cc1` [Tamibarotene ethyl ester]: in data set [1], the EC50 is 4.9 nM and the “rod-cell regeneration induction activity” value is given as “strong rod-cell regeneration induction activity”. Moreover, at Human RARγ, the “RARγ EC500” value is reported as 714 nM. Besides, at Human RARβ, the “RARβ EC1000” value is reported as 514 nM. The “RARα EC1000” value on Human RARα was 21.8 nM.
